Results: ChEMBL document CHEMBL1141912, “Novel beta-(imidazol-4-yl)-beta-amino acids: solid-phase synthesis and study of their inhibitory activity against geranylgeranyl protein transferase type I” (Bioorg Med Chem Lett, 2005)
pIC50: −log10 of the molar value.

Each molecule was assayed against T1, Geranylgeranyl transferase type I (Homo sapiens, UniProt P49354+P53609) (assay: Inhibition of Geranylgeranyl transferase type I).
Format: protein-complex assay

Structure (SMILES)	pIC50
O=C(O)CC(c1cnc[nH]1)N(CCc1ccc(F)cc1)Cc1ccc(-c2ccccc2)cc1 (centres undefined)	5.96
Fc1ccc(CCN(Cc2ccc(Oc3ccccc3)cc2)Cc2c[nH]cn2)cc1	6.34
O=C(O)CC(c1cnc[nH]1)N(CCc1cccs1)Cc1ccc(-c2ccccc2)cc1 (centres undefined)	5.97
CCCCOc1ccc(S(=O)(=O)N(CCc2ccc(F)cc2)C(CC(=O)O)c2cnc[nH]2)cc1 (centres undefined)	5.97
Brc1ccc(CCN(Cc2ccc(Oc3ccccc3)cc2)Cc2c[nH]cn2)cc1	6.59
O=C(O)CC(c1cnc[nH]1)N(CCCCc1ccccc1)Cc1ccc(Oc2ccccc2)cc1 (centres undefined)	6.07

Now from value to molecule:

pIC50	Structure (SMILES)
6.82	COC(=O)C(CC(C)C)NC(=O)c1ccc(NCC(N)CS)cc1-c1cccc2ccccc12 (centres undefined)
7.05	O=C(O)CC(c1cnc[nH]1)N(CCc1ccc(F)cc1)Cc1ccc(Oc2ccccc2)cc1 (centres undefined)

The molecules below were run against Protein farnesyltransferase (Homo sapiens, UniProt P49354+P49356) (assay: Inhibition of Farnesyltransferase).
Format: protein-complex assay

pIC50	Structure (SMILES)
< 5.00	Fc1ccc(CCN(Cc2ccc(Oc3ccccc3)cc2)Cc2c[nH]cn2)cc1
< 5.00	Brc1ccc(CCN(Cc2ccc(Oc3ccccc3)cc2)Cc2c[nH]cn2)cc1

The molecules below were run against T1, Geranylgeranyl transferase type I (assay: Percent inhibition of Geranylgeranyl transferase type I at 10 uM).
Format: protein-complex assay

Structure (SMILES)	inhibition
Cc1ccccc1CN(Cc1ccc(C(C)(C)C)cc1)Cc1c[nH]cn1	24%
CCCCOc1ccc(S(=O)(=O)N(CCc2ccc(F)cc2)C(CC(=O)O)c2c[nH]cn2)cc1 (centres undefined)	78%
CCCCOc1ccc(S(=O)(=O)N(CC2CCCCC2)C(CC(=O)O)c2c[nH]cn2)cc1 (centres undefined)	30%
O=C(O)CC(c1c[nH]cn1)N(CCCCCCO)Cc1c[nH]c(-c2ccccc2)n1 (centres undefined)	0%
Fc1ccc(CCN(Cc2ccc(Oc3ccccc3)cc2)Cc2c[nH]cn2)cc1	78%
O=C(O)CC(c1c[nH]cn1)N(CC(c1ccccc1)c1ccccc1)C1CCN(Cc2ccccc2)C1 (centres undefined)	18%
Brc1ccc(CCN(Cc2ccc(-c3ccccc3)cc2)Cc2c[nH]cn2)cc1	77%
O=C(O)CC(c1c[nH]cn1)N(CCCCCCO)CC(c1ccccc1)c1ccccc1 (centres undefined)	0%
O=C(O)CC(c1c[nH]cn1)N(CC1CCCCC1)S(=O)(=O)c1cc(Cl)sc1Cl (centres undefined)	21%
Brc1ccc(CCN(Cc2ccc(Oc3ccccc3)cc2)Cc2c[nH]cn2)cc1	88%
O=C(O)CC(c1c[nH]cn1)N(Cc1nc[nH]n1)CC1CCCCC1 (centres undefined)	8%
CCCCCCN(Cc1nc[nH]n1)C(CC(=O)O)c1c[nH]cn1 (centres undefined)	3%
O=C(O)CC(NC1CCN(Cc2ccccc2)CC1)c1c[nH]cn1 (centres undefined)	21%
O=C(O)CC(c1c[nH]cn1)N(CCc1cccs1)Cc1nc[nH]n1 (centres undefined)	16%
CCCCCCCN(Cc1ccc(Oc2ccccc2)cc1)Cc1c[nH]cn1	40%
c1cncc(CN(Cc2c[nH]cn2)Cc2ccco2)c1	23%
O=C(O)CC(c1c[nH]cn1)N(CCc1cccs1)Cc1ccccn1 (centres undefined)	11%

Other lines, results leading:

inhibition	Structure (SMILES)
10%	CC(C)CCN(Cc1ccccn1)C(CC(=O)O)c1c[nH]cn1 (centres undefined)
11%	O=C(O)CC(c1c[nH]cn1)N(Cc1nc[nH]n1)C1CCN(Cc2ccccc2)CC1 (centres undefined)
53%	O=C(O)CC(c1c[nH]cn1)N(CCc1ccc(F)cc1)S(=O)(=O)c1cc(Cl)sc1Cl (centres undefined)
74%	O=C(O)CC(c1c[nH]cn1)N(CCCc1ccccc1)Cc1cccc2ccccc12 (centres undefined)
35%	O=C(O)CC(c1c[nH]cn1)N(CCc1ccc(F)cc1)Cc1c[nH]c(-c2ccccc2)n1 (centres undefined)
69%	Brc1ccc(CCN(Cc2ccc3ccccc3c2)Cc2c[nH]cn2)cc1
72%	Cc1ccc(CCN(Cc2ccc(Oc3ccccc3)cc2)Cc2c[nH]cn2)cc1
